Results as given in patent publication US9156796B2, “Benzoimidazole-carboxylic acid amide derivatives as APJ receptor modulators” (SANOFI, priority 2013, dated 2015).

biological target: T1, human apelin receptor (Homo sapiens, UniProt P35414); assay: Determination of agonism on the human apelin receptor by a calcium fluorescence assay (FLIPR); assay type: cell-based; details: HEK293 cells stably transfected with human apelin receptor and Giaq protein, Fluo-4 calcium fluorescence, read-out: EC50 (APJ agonism)
T1 construct: expressed in transfected cells
T1 sequence (P35414 1-380): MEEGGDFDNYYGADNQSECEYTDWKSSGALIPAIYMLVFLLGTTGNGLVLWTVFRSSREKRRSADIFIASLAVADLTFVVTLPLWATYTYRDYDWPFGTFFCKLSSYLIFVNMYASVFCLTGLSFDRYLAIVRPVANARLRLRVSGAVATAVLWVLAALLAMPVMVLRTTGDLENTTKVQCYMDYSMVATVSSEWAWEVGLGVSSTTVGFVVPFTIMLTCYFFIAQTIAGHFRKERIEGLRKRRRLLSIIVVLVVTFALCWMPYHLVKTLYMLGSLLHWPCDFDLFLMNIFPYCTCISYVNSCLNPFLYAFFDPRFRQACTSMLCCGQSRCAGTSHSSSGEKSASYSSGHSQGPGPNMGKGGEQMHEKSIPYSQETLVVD
Procedure, shortened: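 HEK293 cells stably co-expressing human apelin receptor and promiscuous Giaq, loaded 1 h at 37 °C with Fluo-4 (4 μM) in probenecid-containing Hepes buffer, pH 7.4. Compounds, at least 7 concentrations in triplicate, added in FLIPR Tetra; peak calcium fluorescence normalized to 1 μM apelin-13 as 100% to derive EC50.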

Row | SMILES | EC50
1 | CCC(CC)n1c(Cc2cccs2)nc2cc(C(=O)N[C@@H](CC(C)C)C(=O)NC3C[C@H]4CC[C@@H](C3)N4C)ccc21 (stereo partly drawn) [Example 273, 1-(1-Ethyl-propyl)-2-thiophen-2-ylmethyl-1H-benzoimidazole-5-carboxylic acid [(S)-3-methyl-1-((1R,5S)-8-methyl-8-aza-bicyclo[3.2.1]oct-3-ylcarbamoyl)-butyl]-amide] | 212 nM
2 | CCC(CC)n1c(Cc2cccs2)nc2cc(C(=O)N[C@@H](CC(C)C)C(=O)N3CCCN(Cc4c(F)cccc4Cl)CC3)ccc21 [Example 274, 1-(1-Ethyl-propyl)-2-thiophen-2-ylmethyl-1H-benzoimidazole-5-carboxylic acid {(S)-1-[4-(2-chloro-6-fluoro-benzyl)-[1,4]diazepane-1-carbonyl]-3-methyl-butyl}-amide] | 12600 nM
3 | CCC(CC)n1c(Cc2cccs2)nc2cc(C(=O)N[C@@H](CC(C)C)C(=O)NCC3CCCN4CCCCC34)ccc21 (stereo partly drawn) [Example 275, 1-(1-Ethyl-propyl)-2-thiophen-2-ylmethyl-1H-benzoimidazole-5-carboxylic acid {(S)-3-methyl-1-[(octahydro-quinolizin-1-ylmethyl)-carbamoyl]-butyl}-amide] | 242 nM
4 | CCC(CC)n1c(Cc2cccs2)nc2cc(C(=O)N[C@@H](CC(C)C)C(=O)N[C@H]3C[C@H]4CC[C@@H](C3)N4C)ccc21 [Example 276, 1-(1-Ethyl-propyl)-2-thiophen-2-ylmethyl-1H-benzoimidazole-5-carboxylic acid [(S)-3-methyl-1-((3R)-8-methyl-8-aza-bicyclo[3.2.1]oct-3-ylcarbamoyl)-butyl]-amide] | 105 nM
5 | CCC(CC)n1c(Cc2cccs2)nc2cc(C(=O)N[C@@H](CC(C)C)C(=O)NCCCN3CCN(Cc4c(F)cccc4Cl)CC3)ccc21 [Example 277, 1-(1-Ethyl-propyl)-2-thiophen-2-ylmethyl-1H-benzoimidazole-5-carboxylic acid ((S)-1-{3-[4-(2-chloro-6-fluoro-benzyl)-piperazin-1-yl]-propylcarbamoyl}-3-methyl-butyl)-amide] | 2100 nM
6 | CCC(CC)n1c(Cc2cccs2)nc2cc(C(=O)N[C@@H](CC(C)C)C(=O)NCCCN3CCN(CC)CC3)ccc21 [Example 278, 1-(1-Ethyl-propyl)-2-thiophen-2-ylmethyl-1H-benzoimidazole-5-carboxylic acid {(S)-1-[3-{4-ethyl-piperazin-1-yl)-propylcarbamoyl]-3-methyl-butyl}-amide] | 405 nM
7 | CCC(CC)n1c(Cc2cccs2)nc2cc(C(=O)N[C@@H](CC(C)C)C(=O)N3CCC(N4CCN(C)CC4)CC3)ccc21 [Example 280, 1-(1-Ethyl-propyl)-2-thiophen-2-ylmethyl-1H-benzoimidazole-5-carboxylic acid {(S)-3-methyl-1-[4-(4-methyl-piperazin-1-yl)-piperidine-1-carbonyl]-butyl}-amide] | 219 nM
8 | CCC(CC)n1c(Cc2cccs2)nc2cc(C(=O)N[C@@H](CC(C)C)C(=O)N3CCC(N4CCCC(C)C4)CC3)ccc21 (stereo partly drawn) [Example 281, 1-(1-Ethyl-propyl)-2-thiophen-2-ylmethyl-1H-benzoimidazole-5-carboxylic acid [(S)-3-methyl-1-(3-methyl-[1,4′]bipiperidinyl-1′-carbonyl)-butyl]-amide] | 1210 nM
9 | CCC(CC)n1c(Cc2cccs2)nc2cc(C(=O)N[C@@H](CC(C)C)C(=O)N3CCC(N4CCC(C)CC4)CC3)ccc21 [Example 282, 1-(1-Ethyl-propyl)-2-thiophen-2-ylmethyl-1H-benzoimidazole-5-carboxylic acid [(S)-3-methyl-1-(4-methyl-[1,4′]bipiperidinyl-1′-carbonyl)-butyl]-amide] | 430 nM
10 | CCCN(CCC)C1CCN(C(=O)[C@H](CC(C)C)NC(=O)c2ccc3c(c2)nc(Cc2cccs2)n3C(CC)CC)CC1 [Example 284, 1-(1-Ethyl-propyl)-2-thiophen-2-ylmethyl-1H-benzoimidazole-5-carboxylic acid [(S)-1-(4-dipropylamino-piperidine-1-carbonyl)-3-methyl-butyl]-amide] | 252 nM
11 | CCC(CC)n1c(Cc2cccs2)nc2cc(C(=O)N[C@@H](CC(C)C)C(=O)NCC(C)(C)CN3CCCCCC3)ccc21 [Example 287, 1-(1-Ethyl-propyl)-2-thiophen-2-ylmethyl-1H-benzoimidazole-5-carboxylic acid [(S)-1-(3-azepan-1-yl-2,2-dimethyl-propylcarbamoyl)-3-methyl-butyl]-amide] | 408 nM

Further lines, results first:

Row | EC50 | SMILES
12 | 2270 nM | CCC(CC)n1c(Cc2cccs2)nc2cc(C(=O)N[C@@H](CC(C)C)C(=O)NCCCN3CCN(c4ccc(OC)cc4)CC3)ccc21 [Example 279, 1-(1-Ethyl-propyl)-2-thiophen-2-ylmethyl-1H-benzoimidazole-5-carboxylic acid ((S)-1-{3-[4-(4-methoxy-phenyl)-piperazin-1-yl]-propylcarbamoyl}-3-methyl-butyl)-amide]
13 | 4500 nM | CCC(CC)n1c(Cc2cccs2)nc2cc(C(=O)N[C@@H](CC(C)C)C(=O)Nc3ccc(CN4CCC(C)CC4)cc3)ccc21 [Example 283, 1-(1-Ethyl-propyl)-2-thiophen-2-ylmethyl-1H-benzoimidazole-5-carboxylic acid {(S)-3-methyl-1-[4-(4-methyl-piperidin-1-ylmethyl)-phenylcarbamoyl]-butyl}-amide]
14 | 295 nM | CCCN1CCC(NC(=O)[C@H](CC(C)C)NC(=O)c2ccc3c(c2)nc(Cc2cccs2)n3C(CC)CC)CC1 [Example 285, 1-(1-Ethyl-propyl)-2-thiophen-2-ylmethyl-1H-benzoimidazole-5-carboxylic acid [(S)-3-methyl-1-(1-propyl-piperidin-4-ylcarbamoyl)-butyl]-amide]
15 | 1100 nM | CCC(CC)n1c(Cc2cccs2)nc2cc(C(=O)N[C@@H](CC(C)C)C(=O)NCC3CCCN(Cc4ccccc4)C3)ccc21 (stereo partly drawn) [Example 286, 1-(1-Ethyl-propyl)-2-thiophen-2-ylmethyl-1H-benzoimidazole-5-carboxylic acid {(S)-1-[(1-benzyl-piperidin-3-ylmethyl)-carbamoyl]-3-methyl-butyl}-amide]
16 | 512 nM | CCC(CC)n1c(Cc2cccs2)nc2cc(C(=O)N[C@@H](CC(C)C)C(=O)NC3CCN(Cc4c(OC)cccc4OC)CC3)ccc21 [Example 288, 1-(1-Ethyl-propyl)-2-thiophen-2-ylmethyl-1H-benzoimidazole-5-carboxylic acid {(S)-1-[1-(2,6-dimethoxy-benzyl)-piperidin-4-ylcarbamoyl]-3-methyl-butyl}-amide]
17 | 341 nM | CCC(CC)n1c(Cc2cccs2)nc2cc(C(=O)N[C@@H](CC(C)C)C(=O)NCCC3CCCCN3C)ccc21 (stereo partly drawn) [Example 289, 1-(1-Ethyl-propyl)-2-thiophen-2-ylmethyl-1H-benzoimidazole-5-carboxylic acid {(S)-3-methyl-1-[2-(1-methyl-piperidin-2-yl)-ethylcarbamoyl]-butyl}-amide]
18 | 506 nM | CCC(CC)n1c(Cc2cccs2)nc2cc(C(=O)N[C@@H](CC(C)C)C(=O)NCC3CCN(Cc4ccccc4)C3)ccc21 (stereo partly drawn) [Example 290, 1-(1-Ethyl-propyl)-2-thiophen-2-ylmethyl-1H-benzoimidazole-5-carboxylic acid {(S)-1-[(1-benzyl-pyrrolidin-3-ylmethyl)-carbamoyl]-3-methyl-butyl}-amide]
